Patent US20110230659A1, “CYCLOBUTYL PURINE DERIVATIVE, ANGIOGENESIS PROMOTING AGENT, LUMEN FORMATION PROMOTING AGENT, NEUROCYTE GROWTH PROMOTING AGENT, AND DRUG” (NATIONAL UNIVERSITY CORPORATION KAGAWA UNIVERSITY, priority 2008, published 2011)

Experiments:
ERK = ERK activation (phosphorylation) immunoblot in HUVEC; format: cell-based, human
Description: First, to a HuMedia-EB2 medium (Kurabo) to which 2 v/v % inactivated fetal bovine serum (FBS) had been added, 2-Cl—C.OXT-A was added so that its concentration became 100 μmol/l. Thus, a medium was prepared. Using the medium, human umbilical vein endothelial cells (HUVEC) were cultured for predetermined periods (0, 10, 20, 30, 45, and 60 minutes).
After the culture, cells were collected. The collected cells were lysed by adding a cell lysis buffer (SDS-lysis buffer) thereto, and heat-denatured at 95° C. for 5 minutes. The solubilized protein in an amount corresponding to 5 v/v % of the heat-denatured cell lysate was subjected to electrophoresis using 10% SDS-polyacrylamide gel, whereby the solubilized protein was transferred onto a nitrocellulose membrane (Amersham Biosciences). To 20 ml of TBS-T having the following composition, skim milk (Wako) was added so that its concentration became 5%, thus preparing a blocking solution. The resultant nitrocellulose membrane was immersed in the blocking solution and shaken at room temperature for 1 hour.
(§1) Primary antibodies shown below were diluted 1000-fold by adding them to 5% bovine serum albumin (Sigma)-containing TBS-T, thus preparing a primary antibody solution. The nitrocellulose membrane after being subjected to the blocking was immersed in the primary antibody solution, and shaken at room temperature for 1 hour. The resultant nitrocellulose membrane was immersed in the TBS-T and washed by being shaken for 10 minutes. This washing operation was carried out three times in total.
as §1, with “Secondary” for “Primary”, “20000-fold” for “1000-fold”, “to” for “to 5% bovine serum albumin (Sigma)-containing”, “secondary” for “primary”, “having undergone” for “after being subjected to”, “reaction with the primary antibodies” for “blocking”
The enzymes were visualized with SuperSignal (registered trademark) West Pico Chemiluminescent Substrate (Pierce), and detected by being exposed to RX—U X-ray film (FUJIFILM Corporation). From the detected bands, the respective phosphoenzymes and total enzymes were quantified using an NIH image software. Furthermore, the relative value (−fold) of each phosphoenzyme was calculated by substituting the measured value of the phosphoenzyme into the following equation (III).
Relative value(−fold)of phosphoenzyme=(B/D)/(A/C) (III)
In the present example, the effect of 2-Cl—C.OXT-A of Example 1 and C.OXT-G of Comparative Example 2 on the activation (phosphorylation) of ERK was examined. In the present example, the amount of each enzyme was measured and the relative value (−fold) of each phosphoenzyme was calculated in the same manner as in Example 3, except that: a medium to which 2-Cl—C.OXT-A had been added so as to achieve predetermined concentrations (0, 10 and 100 μmol/l) and a medium to which 100 μmol/l C.OXT-G had been added were used; the culture period after the addition was set to 20 minutes: as the primary antibodies, only an anti-phospho ERK polyclonal antibody (Catalog No. 9101, Cell Signaling Technology) and an anti-total ERK monoclonal antibody (Catalog No. 610408, BD Transduction Laboratory) were used; as the secondary antibody for ERK, a sheep HRP-labeled anti-mouse IgG antibody (Pierce) was used; and as a secondary antibody of pERK, a sheep HRP-labeled anti-rabbit IgG antibody (Pierce) was used.
In the present example, the effect of PD98059 as an MEK inhibitor on the ERK activation (phosphorylation) by 2-Cl—C.OXT-A used in Example 1 was examined. […]

[1] = tested on: human umbilical vein endothelial cells (HUVEC) and normal human dermal fibroblasts; assay: Measurement of lumen formation (angiogenesis kit, CD31 immunostaining, lumen area); format: cell-based; settings: for lumen formation promoting-activity for vascular endothelial cells: examined in the same manner as in Example 1
Description: The measurement of lumen formation was carried out in the following manner using commercially available angiogenesis kits (Kurabo), each including human umbilical vein endothelial cells (HUVEC) and normal human dermal fibroblasts. First, sample solutions were prepared by dissolving 2-Cl—C.OXT-A in physiological saline so as to achieve predetermined concentrations (1, 10, 100, 500 μmol/l, 1, 5, 10, 50 mmol/l). Then, the sample solutions containing 2-Cl—C.OXT-A at the predetermined concentrations respectively were added to media provided in the kits so that their concentrations became 10 v/v %. Thus, lumen formation media were prepared. The final concentrations of 2-Cl—C.OXT-A in the lumen formation media were 0.1, 1, 10, 50, 100, 500 μmol/l, 1 and 5 mmol/1.
Using each of the lumen formation media, the human umbilical vein endothelial cells (HUVEC) and the normal human dermal fibroblasts were cultured for 10 days. After the culture, the human umbilical vein endothelial cells (HUVEC) were immunostained using a lumen staining kit (for CD31 staining, Kurabo). Then, using NIH Image (image processing and analysis software), the area of a portion stained by the immunostaining (lumen area) was measured. As a control, a medium provided in the kit was used instead of the lumen formation medium to carry out the culture, and the cells were immunostained and the lumen area was measured in the same manner as in the above. Then, using the following equation (II), the relative value of lumen area in the culture using each of the lumen formation media containing 2-Cl—C.OXT-A at the predetermined concentrations was calculated.
In the present example, the relative value of lumen area was calculated in the same manner as in the lumen formation measurement in Example 1, except that the measurement was carried out with respect to four groups respectively using media Nos. 5 to 8 prepared by adding 2-Cl—C.OXT-A and PD98059 to media provided in the above-described angiogenesis kits (Kurabo) so that their concentrations became as shown in Table 2 below. In the group using the medium No. 7, the culture was conducted using the medium No. 7 from the first to third days of the culture and the medium No. 5 from the fourth to tenth days of the culture, and in the group using the medium No. 8, the culture was conducted using the medium No. 8 from the first to third days of the culture and the medium No. 6 from the fourth to tenth days of the culture.
In the present example, the relative value of lumen area was calculated in the same manner as in the lumen formation measurement in Example 1, except that the measurement was carried out with respect to six groups respectively using media Nos. 15 to 20 prepared by adding 2-Cl—C.OXT-A, VEGF (positive control), and SU5416 to media provided in the above-described angiogenesis kit (Kurabo) so that their concentrations became as shown in Table 4 below. In the group using the medium No. 16, the culture was conducted using the medium No. 16 from the first to third days of the culture and the medium No. 15 from the fourth to tenth days of the culture; in the group using the medium No. 18, the culture was conducted using the medium No. 18 from the first to third days of the culture and the medium No. 17 from the fourth to tenth days of the culture; and in the group using the medium No. 20, the culture was conducted using the medium No. 20 from the first to third days of the culture and the medium No. 19 from the fourth to tenth days of the culture.

[2] = tested on: Human umbilical vein endothelial cells (HUVEC); assay: Measurement of cell migration (CytoSelect 24-well Cell Migration Assay); format: cell-based; settings: examined in the same manner as in Example 1
Description: Measurement of cell migration was carried out in the following manner using CytoSelect 24-well Cell Migration Assay (CBA-100, Cell Biolabs) kits. First, sample solutions were prepared by dissolving 2-Cl—C.OXT-A in physiological saline so as to achieve predetermined concentrations (0.1, 0.5, 1 mmol/l). Then, the sample solutions containing 2-Cl—C.OXT-A at the predetermined concentrations respectively were added to HuMedia-EB2 media (Kurabo) to which 2 v/v % inactivated fetal bovine serum (FBS) had been added so that their concentrations became 10 v/v %. Thus, cell migration media were prepared. The final concentrations of 2-Cl—C.OXT-A in the cell migration media were 10, 50, and 100 μmol/l.
Human umbilical vein endothelial cells (HUVEC) were suspended in a HuMedia-EB2 medium (Kurabo) to which 2 v/v % inactivated fetal bovine serum (FBS) had been added at a density of 0.5×10^6 cells/ml. Thus, a cell suspension was prepared. 300 μl of the cell suspension was added to an upper compartment (i.e., in an insert) of a polycarbonate membrane plate provided in the kit, and 500 μl of the cell migration medium was added to a lower compartment (i.e., in a well) of the plate. Then, the cells were cultured at 37° C. for 24 hours. After the completion of the culture, the membrane on the inner bottom face of the insert was wiped out with a cotton swab to remove the cells on the membrane. Then, cells having migrated to the rear face of the membrane (the membrane on the outer bottom face of the insert) were stained using a staining solution provided in the kit, and then photographed from below the insert. After the photographing, the dye was extracted with an extracting solution provided in the kit, and the absorbance at 560 nm was measured using a microplate reader. As a control, a HuMedia-EB2 medium (Kurabo) to which 2 v/v % inactivated fetal bovine serum (FBS) had been added was used instead of the cell migration medium to carry out the culture, and the cells were stained and the absorbance was measured in the same manner as in the above. Then, using the above equation (I), the relative absorbance in the culture using each of the cell migration media containing 2-Cl—C.OXT-A at the predetermined concentrations was calculated.

[3] = tested on: Human umbilical vein endothelial cells (HUVEC); assay: Measurement of cell proliferation (Cell Counting Kit-8); format: cell-based; settings: examined in the same manner as in Example 1
Description: Sample solutions were prepared by dissolving 2-Cl—C.OXT-A in physiological saline so as to achieve predetermined concentrations (0.5, 1, 5, 10, 50, 100 mmol/l). Then, the sample solutions containing 2-Cl—C.OXT-A at the predetermined concentrations respectively were added to HuMedia-EB2 media (Kurabo) to which 2 v/v % inactivated fetal bovine serum (FBS) had been added so that their concentrations became 10 v/v %. Thus, cell proliferation media were prepared. The final concentrations of 2-Cl—C.OXT-A in the cell proliferation media were 50, 100, 500 μmol/l, 1, 5, and 10 mmol/1.
Human umbilical vein endothelial cells (HUVEC) suspended in a HuMedia-EG2 medium (Kurabo) were inoculated into each of gelatin-coated wells of a 96-well plate at a density of 3×10^3 cells per well, and cultured for 24 hours. 24 hours after the start of the culture, the medium was removed, and 100 μl of the cell proliferation medium was added to each well. The cells were cultured for another 48 hours. After the completion of the culture, a color reaction was caused using a Cell Counting Kit-8 (Dojindo Laboratories). 2 hours after the start of the reaction, the absorbance at 450 nm was measured using a microplate reader. As a control, a HuMedia-EB2 medium (Kurabo) to which 2 v/v % inactivated fetal bovine serum (FBS) had been added was used instead of the cell proliferation medium to carry out the culture, and a color reaction was caused and the absorbance was measured in the same manner as in the above. Then, using the following equation (I), the relative absorbance in the culture using each of the cell proliferation media containing 2-Cl—C.OXT-A at the predetermined concentrations was calculated.

Nc1nc2c(ncn2C2CC(CO)C2CO)c(=O)[nH]1 (stereo not drawn) [C.OXT-G, 2-amino-9-[trans-trans-2,3-bis(hydroxymethyl)cyclobutyl]-3H-purine-6-one, reference compound]
amount of pERK (ERK; Example 4, 100 μmol/l C.OXT-G, 20 minutes): not increased

COc1cccc(-c2cc(=O)c3ccccc3o2)c1N [PD98059, reference compound]
relative value of lumen area compared with control ([1]; Example 7, medium No. 8: 2-Cl—C.OXT-A 10 μmol/l + PD98059 10 nmol/l (first to third days)): about 1 fold | increase in pERK (ERK; Example 6, medium No. 3: only PD98059 100 nmol/l): not observed | ERK activation by 2-Cl—C.OXT-A in the presence of PD98059 (ERK; Example 6, medium No. 4: 2-Cl—C.OXT-A 100 μmol/l + PD98059 100 nmol/l): inhibited

CC(=O)OCC1CC(n2cnc3c(=O)[nH]c(N)nc32)C1COC(C)=O (stereo not drawn) [chemical formula (17), 9-[trans-trans-2,3-bis(acetyloxymethyl)cyclobutyl]guanine]
cell migration promoting-activity for vascular endothelial cells [2]: exhibited | cell proliferation promoting-activity for vascular endothelial cells [3]: exhibited | lumen formation promoting-activity for vascular endothelial cells [1]: exhibited

CC(=O)OCC1CC(n2c(Br)nc3c(=O)[nH]c(N)nc32)C1COC(C)=O (stereo not drawn) [chemical formula (18), 8-bromo-9-[trans-trans-2,3-bis(acetyloxymethyl)cyclobutyl]guanine]
cell migration promoting-activity for vascular endothelial cells [2]: exhibited | cell proliferation promoting-activity for vascular endothelial cells [3]: exhibited | lumen formation promoting-activity for vascular endothelial cells [1]: exhibited

Nc1nc2c(nc(Br)n2C2CC(CO)C2CO)c(=O)[nH]1 (stereo not drawn) [chemical formula (19), 8-bromo-9-[trans-trans-2,3-bis(hydroxymethyl)cyclobutyl]guanine]
cell migration promoting-activity for vascular endothelial cells [2]: exhibited | cell proliferation promoting-activity for vascular endothelial cells [3]: exhibited | lumen formation promoting-activity for vascular endothelial cells [1]: exhibited

CC(=O)OCC1CC(n2c(Cl)nc3c(Cl)nc(N)nc32)C1COC(C)=O (stereo not drawn) [chemical formula (20), 2-amino-6,8-dichloro-9-[trans-trans-2,3-bis(acetyloxymethyl)cyclobutyl]purine]
cell migration promoting-activity for vascular endothelial cells [2]: exhibited | cell proliferation promoting-activity for vascular endothelial cells [3]: exhibited | lumen formation promoting-activity for vascular endothelial cells [1]: exhibited

COc1nc(N)nc2c1nc(OC)n2C1CC(CO)C1CO (stereo not drawn) [chemical formula (21), 2-amino-6,8-dimethoxy-9-[trans-trans-2,3-bis(hydroxymethyl)cyclobutyl]purine]
cell migration promoting-activity for vascular endothelial cells [2]: exhibited | cell proliferation promoting-activity for vascular endothelial cells [3]: exhibited | lumen formation promoting-activity for vascular endothelial cells [1]: exhibited
